{
  "source": "paper PMC9853918",
  "about": "(Journal of chemical information and modeling, 2022)",
  "key": {"H11G11-BG βGUS": {"system": "H11G11-BG βGUS", "assay": "βGUS", "format": "biochemical, uncultured bacterium", "settings": "for efficacy: 0.5 nM GUS, 100 μM 4MUG, 1 hr at room temperature, negative = inhibition; for curve class (CC): dose-response curve class"}, "(UniProt D5GU71)": {"biological_target": "(UniProt D5GU71)", "sequence (D5GU71 1-754)": "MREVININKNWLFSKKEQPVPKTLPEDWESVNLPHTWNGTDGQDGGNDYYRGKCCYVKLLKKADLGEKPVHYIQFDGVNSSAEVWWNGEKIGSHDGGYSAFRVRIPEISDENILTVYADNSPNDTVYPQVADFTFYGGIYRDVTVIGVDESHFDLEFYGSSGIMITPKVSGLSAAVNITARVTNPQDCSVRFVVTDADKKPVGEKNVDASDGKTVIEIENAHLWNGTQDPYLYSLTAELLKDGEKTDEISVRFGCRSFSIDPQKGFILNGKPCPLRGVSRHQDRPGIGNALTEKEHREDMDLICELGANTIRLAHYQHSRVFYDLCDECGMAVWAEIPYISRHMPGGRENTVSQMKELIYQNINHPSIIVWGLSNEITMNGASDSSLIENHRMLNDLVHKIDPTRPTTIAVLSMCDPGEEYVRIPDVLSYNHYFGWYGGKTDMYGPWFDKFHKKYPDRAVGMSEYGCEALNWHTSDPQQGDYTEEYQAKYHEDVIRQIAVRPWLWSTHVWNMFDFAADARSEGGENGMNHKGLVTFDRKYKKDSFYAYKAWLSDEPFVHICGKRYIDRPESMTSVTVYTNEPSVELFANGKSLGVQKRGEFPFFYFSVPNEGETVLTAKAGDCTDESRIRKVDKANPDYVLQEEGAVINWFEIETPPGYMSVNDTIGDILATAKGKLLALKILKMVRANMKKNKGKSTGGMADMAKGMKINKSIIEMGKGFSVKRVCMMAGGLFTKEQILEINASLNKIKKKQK", "assay": "βGUS", "format": "biochemical, uncultured bacterium"}},
  "data": [
    {"smiles": "O=C(Nc1cccc(-c2nc3ncccc3o2)c1)c1ccc(-c2cccc(Cl)c2Cl)o1", "note": "[NCGC00099510, 5-(2,3-dichlorophenyl)-N-(3-(oxazolo[4,5-b]pyridine-2-yl)phenyl)furan-2-carboxamide]", "values": [
      {"measurement": "efficacy", "setting": "H11G11-BG βGUS", "value": "−70", "unit": "%"},
      {"measurement": "curve class (CC)", "setting": "H11G11-BG βGUS", "value": "−1.2"},
      {"measurement": "IC50", "setting": "(UniProt D5GU71)", "value": 9.6, "unit": "µM"}
    ]},
    {"smiles": "c1ccc(Nc2cc3c(cn2)CN(CC2CC2)CCN3)cc1", "note": "[NCGC00411059, 4-(cyclopropylmethyl)-N-phenyl-2,3,4,5-tetrahydro-1H-pyrido[4,3-e][1,4]diazepin-8-amine]", "values": [
      {"measurement": "efficacy", "setting": "H11G11-BG βGUS", "value": "−72", "unit": "%"},
      {"measurement": "curve class (CC)", "setting": "H11G11-BG βGUS", "value": "−2.2"}
    ]}
  ]
}
